From ChEMBL document CHEMBL2074362, “Lithocholic acid decreases expression of bile salt export pump through farnesoid X receptor antagonist activity” (J Biol Chem, 2002) come the findings set out here.

Structures are written as SMILES.

This data set deals with Bile salt export pump (Homo sapiens, UniProt O95342). The experiment in a line: TP_TRANSPORTER: Taq-Man PCR in vitro, primary hepatocytes. It counts as functional, cell-based, Hepatocyte.
Chain of Bile salt export pump (O95342 whole entry): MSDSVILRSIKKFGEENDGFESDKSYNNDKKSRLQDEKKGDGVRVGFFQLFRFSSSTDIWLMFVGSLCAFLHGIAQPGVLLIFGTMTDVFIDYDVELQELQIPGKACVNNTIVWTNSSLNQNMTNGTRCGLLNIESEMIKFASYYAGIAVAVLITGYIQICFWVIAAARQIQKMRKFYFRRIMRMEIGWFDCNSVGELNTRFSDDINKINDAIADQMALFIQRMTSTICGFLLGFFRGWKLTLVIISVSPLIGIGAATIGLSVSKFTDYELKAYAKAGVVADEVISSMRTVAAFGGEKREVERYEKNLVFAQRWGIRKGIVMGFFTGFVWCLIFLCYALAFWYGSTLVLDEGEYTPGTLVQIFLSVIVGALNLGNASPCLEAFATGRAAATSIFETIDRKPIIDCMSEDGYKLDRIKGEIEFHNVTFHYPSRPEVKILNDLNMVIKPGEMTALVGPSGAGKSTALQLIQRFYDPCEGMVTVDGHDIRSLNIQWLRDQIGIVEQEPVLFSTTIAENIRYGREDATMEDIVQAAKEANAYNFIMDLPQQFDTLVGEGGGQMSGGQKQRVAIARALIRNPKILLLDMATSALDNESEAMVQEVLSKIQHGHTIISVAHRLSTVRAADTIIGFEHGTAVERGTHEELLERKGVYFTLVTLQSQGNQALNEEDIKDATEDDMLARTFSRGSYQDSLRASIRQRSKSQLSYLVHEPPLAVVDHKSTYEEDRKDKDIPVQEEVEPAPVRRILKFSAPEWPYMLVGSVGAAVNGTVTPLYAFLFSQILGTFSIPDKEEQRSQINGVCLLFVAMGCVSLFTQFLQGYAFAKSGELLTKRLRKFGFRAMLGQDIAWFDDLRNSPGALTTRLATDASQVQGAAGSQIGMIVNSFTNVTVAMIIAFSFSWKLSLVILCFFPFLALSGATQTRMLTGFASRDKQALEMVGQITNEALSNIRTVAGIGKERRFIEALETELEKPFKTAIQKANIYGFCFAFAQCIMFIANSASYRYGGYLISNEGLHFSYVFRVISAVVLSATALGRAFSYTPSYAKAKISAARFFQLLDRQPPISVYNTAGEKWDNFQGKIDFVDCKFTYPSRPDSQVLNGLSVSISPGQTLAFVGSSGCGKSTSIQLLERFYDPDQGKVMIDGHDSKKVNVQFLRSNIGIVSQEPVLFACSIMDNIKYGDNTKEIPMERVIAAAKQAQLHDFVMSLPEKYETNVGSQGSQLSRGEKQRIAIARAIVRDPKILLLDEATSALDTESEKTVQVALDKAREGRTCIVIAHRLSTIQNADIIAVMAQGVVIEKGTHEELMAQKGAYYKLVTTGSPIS

As for `CC(C)c1onc(-c2c(Cl)cccc2Cl)c1COc1ccc(/C=C/c2cccc(C(=O)O)c2)c(Cl)c1`, the Activity result is “inducer [+]”.
